# Results as given in PubChem BioAssay (NCI).
#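 GI50 is the concentration that inhibits growth by half. At the TGI there is no net growth.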
# Columns and labels:
# Test in all cases: DTP human tumour cell line panel, 384-well format
# BT-549 breast = test system: BT-549 breast
# K-562 leukemia = test system: K-562 leukemia
# MDA-MB-435 melanoma = test system: MDA-MB-435 melanoma
# SW-620 colon = test system: SW-620 colon
# RPMI-8226 leukemia = test system: RPMI-8226 leukemia
# MOLT-4 leukemia = test system: MOLT-4 leukemia
# HL-60(TB) leukemia = test system: HL-60(TB) leukemia
# NCI-H522 lung = test system: NCI-H522 lung
# HT29 colon = test system: HT29 colon
# IGROV1 ovarian = test system: IGROV1 ovarian
# SNB-75 CNS = test system: SNB-75 CNS
# HOP-62 NSCLC = test system: HOP-62 NSCLC
# SK-OV-3 ovarian = test system: SK-OV-3 ovarian
# A549 NSCLC = test system: A549 NSCLC
# DU-145 prostate = test system: DU-145 prostate
# OVCAR-3 ovarian = test system: OVCAR-3 ovarian
# EKVX NSCLC = test system: EKVX NSCLC
# COLO 205 colon = test system: COLO 205 colon
# NCI-H23 lung = test system: NCI-H23 lung
# HOP-92 NSCLC = test system: HOP-92 NSCLC
# A498 renal = test system: A498 renal
# UO-31 renal = test system: UO-31 renal
# HCT-15 colon = test system: HCT-15 colon
# CAKI-1 renal = test system: CAKI-1 renal
# SNB-19 CNS = test system: SNB-19 CNS
# OVCAR-5 ovarian = test system: OVCAR-5 ovarian
# SR leukemia = test system: SR leukemia
# LOX IMVI melanoma = test system: LOX IMVI melanoma
# OVCAR-8 ovarian = test system: OVCAR-8 ovarian
# NCI-H226 lung = test system: NCI-H226 lung
# M14 melanoma = test system: M14 melanoma
# SK-MEL-5 melanoma = test system: SK-MEL-5 melanoma
# HS 578T breast = test system: HS 578T breast
# NCI-H460 NSCLC = test system: NCI-H460 NSCLC
# HCC-2998 colon = test system: HCC-2998 colon
# MDA-MB-231 breast = test system: MDA-MB-231 breast
# T-47D breast = test system: T-47D breast
# UACC-257 melanoma = test system: UACC-257 melanoma
# MCF7 breast = test system: MCF7 breast
# SK-MEL-28 melanoma = test system: SK-MEL-28 melanoma
# SF-268 CNS = test system: SF-268 CNS
# PC-3 prostate = test system: PC-3 prostate
# TK-10 renal = test system: TK-10 renal
# NCI-H322M lung = test system: NCI-H322M lung
# SF-295 CNS = test system: SF-295 CNS
# UACC-62 melanoma = test system: UACC-62 melanoma
# NCI/ADR-RES ovarian = test system: NCI/ADR-RES ovarian
# MALME-3M melanoma = test system: MALME-3M melanoma
# SF-539 CNS = test system: SF-539 CNS
# ACHN renal = test system: ACHN renal
# KM12 colon = test system: KM12 colon
# SN12C renal = test system: SN12C renal
# RXF 393 renal = test system: RXF 393 renal
# CCRF-CEM leukemia = test system: CCRF-CEM leukemia
# 786-0 renal = test system: 786-0 renal
# OVCAR-4 ovarian = test system: OVCAR-4 ovarian
# MDA-MB-468 breast = test system: MDA-MB-468 breast
smiles,measurement,setting,value
O=C(CC1(O)C(=O)Nc2c(Cl)ccc(Cl)c21)c1ccc(C2CC2)cc1 (centres undefined),GI50,BT-549 breast,0.049 µM
same,TGI,BT-549 breast,2.73 µM
same,GI50,K-562 leukemia,0.0462 µM
same,TGI,K-562 leukemia,0.211 µM
same,GI50,MDA-MB-435 melanoma,0.0245 µM
same,TGI,MDA-MB-435 melanoma,0.0596 µM
same,GI50,SW-620 colon,0.0457 µM
same,TGI,SW-620 colon,15.5 µM
same,GI50,RPMI-8226 leukemia,0.133 µM
same,TGI,RPMI-8226 leukemia,0.271 µM
same,GI50,MOLT-4 leukemia,0.0473 µM
same,TGI,MOLT-4 leukemia,0.135 µM
same,GI50,HL-60(TB) leukemia,0.0377 µM
same,TGI,HL-60(TB) leukemia,0.12 µM
same,GI50,NCI-H522 lung,0.0451 µM
same,TGI,NCI-H522 lung,0.179 µM
same,GI50,HT29 colon,0.0505 µM
same,TGI,HT29 colon,0.248 µM
same,GI50,IGROV1 ovarian,0.882 µM
same,TGI,IGROV1 ovarian,17 µM
same,GI50,SNB-75 CNS,0.0967 µM
same,TGI,SNB-75 CNS,3.17 µM
same,GI50,HOP-62 NSCLC,0.199 µM
same,TGI,HOP-62 NSCLC,13.4 µM
same,GI50,SK-OV-3 ovarian,0.238 µM
same,TGI,SK-OV-3 ovarian,14.1 µM
same,GI50,A549 NSCLC,0.546 µM
same,TGI,A549 NSCLC,13.8 µM
same,GI50,DU-145 prostate,0.338 µM
same,TGI,DU-145 prostate,2.49 µM
same,GI50,OVCAR-3 ovarian,0.0731 µM
same,TGI,OVCAR-3 ovarian,0.286 µM
same,GI50,EKVX NSCLC,0.385 µM
same,TGI,EKVX NSCLC,16.9 µM
same,GI50,COLO 205 colon,0.124 µM
same,TGI,COLO 205 colon,0.448 µM
same,GI50,NCI-H23 lung,0.192 µM
same,TGI,NCI-H23 lung,0.759 µM
same,GI50,HOP-92 NSCLC,0.21 µM
same,TGI,HOP-92 NSCLC,11 µM
same,GI50,A498 renal,0.226 µM
same,TGI,A498 renal,10.7 µM
same,GI50,UO-31 renal,10.6 µM
same,TGI,UO-31 renal,23 µM
same,GI50,HCT-15 colon,0.0519 µM
same,TGI,HCT-15 colon,2.06 µM
same,GI50,CAKI-1 renal,0.173 µM
same,TGI,CAKI-1 renal,15.2 µM
same,GI50,SNB-19 CNS,0.528 µM
same,TGI,SNB-19 CNS,15.3 µM
same,GI50,OVCAR-5 ovarian,0.9 µM
same,TGI,OVCAR-5 ovarian,17.7 µM
same,GI50,SR leukemia,0.0169 µM
same,TGI,SR leukemia,0.0337 µM
same,GI50,LOX IMVI melanoma,0.434 µM
same,TGI,LOX IMVI melanoma,4.65 µM
same,GI50,OVCAR-8 ovarian,0.257 µM
same,TGI,OVCAR-8 ovarian,1.23 µM
same,GI50,NCI-H226 lung,0.732 µM
same,TGI,NCI-H226 lung,14.2 µM
same,GI50,M14 melanoma,0.054 µM
same,TGI,M14 melanoma,0.266 µM
same,GI50,SK-MEL-5 melanoma,0.142 µM
same,TGI,SK-MEL-5 melanoma,0.414 µM
same,GI50,HS 578T breast,0.119 µM
same,TGI,HS 578T breast,0.284 µM
same,GI50,NCI-H460 NSCLC,0.225 µM
same,TGI,NCI-H460 NSCLC,0.611 µM
same,GI50,HCC-2998 colon,0.277 µM
same,TGI,HCC-2998 colon,4.61 µM
same,GI50,MDA-MB-231 breast,0.182 µM
same,TGI,MDA-MB-231 breast,16.3 µM
same,GI50,T-47D breast,0.323 µM
same,TGI,T-47D breast,18.2 µM
same,GI50,UACC-257 melanoma,0.28 µM
same,TGI,UACC-257 melanoma,2.34 µM
same,GI50,MCF7 breast,0.111 µM
same,TGI,MCF7 breast,13.5 µM
same,GI50,SK-MEL-28 melanoma,0.221 µM
same,TGI,SK-MEL-28 melanoma,18.9 µM
same,GI50,SF-268 CNS,0.387 µM
same,TGI,SF-268 CNS,11.2 µM
same,GI50,PC-3 prostate,0.372 µM
same,TGI,PC-3 prostate,14.4 µM
same,GI50,TK-10 renal,10.4 µM
same,TGI,TK-10 renal,25.2 µM
same,GI50,NCI-H322M lung,0.845 µM
same,TGI,NCI-H322M lung,18 µM
same,GI50,SF-295 CNS,0.112 µM
same,TGI,SF-295 CNS,0.853 µM
same,GI50,UACC-62 melanoma,0.0389 µM
same,TGI,UACC-62 melanoma,5.04 µM
same,GI50,NCI/ADR-RES ovarian,0.0692 µM
same,TGI,NCI/ADR-RES ovarian,0.276 µM
same,GI50,MALME-3M melanoma,0.0615 µM
same,TGI,MALME-3M melanoma,10.3 µM
same,GI50,SF-539 CNS,0.206 µM
same,TGI,SF-539 CNS,0.907 µM
same,GI50,ACHN renal,0.743 µM
same,TGI,ACHN renal,17.2 µM
same,GI50,KM12 colon,0.0747 µM
same,TGI,KM12 colon,2.77 µM
same,GI50,SN12C renal,0.575 µM
same,TGI,SN12C renal,20.1 µM
same,GI50,RXF 393 renal,0.155 µM
same,TGI,RXF 393 renal,0.793 µM
same,GI50,CCRF-CEM leukemia,0.13 µM
same,TGI,CCRF-CEM leukemia,0.262 µM
same,GI50,786-0 renal,0.377 µM
same,TGI,786-0 renal,12 µM
same,GI50,OVCAR-4 ovarian,0.369 µM
same,TGI,OVCAR-4 ovarian,7.59 µM
same,GI50,MDA-MB-468 breast,0.0302 µM
same,TGI,MDA-MB-468 breast,0.0944 µM
